One experiment deals with S. aureus strain RN6390. The experiment in a line: Resistance development assay by repeated exposure in an MIC assay. The format is cell-based, Staphylococcus aureus. Conditions: RN6390, up to 10 rounds of exposure. As to the method: Error bars represent SEM for three independent experiments performed in triplicates. […] Cells surviving at half (½) of the MIC value were used as an inoculum for each subsequent round of exposure. The change in susceptibility is recorded and presented as fold change resistance from day 1 to 10 of exposure and also after 5 days of growth (without any selection pressure) following the 10th day (represented as 10+5). The data represent means±SEM of two independent experiments performed in triplicate.
To verify and quantify the lytic activity against live S. aureus, we have tested Ply187AN-KSH3b in the Turbidity Reduction Assay. The turbidity assay measures the drop in optical density (OD) resulting from lysis of the target bacteria with the phage endolysin-derived protein. Turbidity reduction assays by chimeric Ply187AN-KSH3b were performed in a 96 well plate as described previously by Becker et al. (2009a, 2009b, supra). Briefly, S. aureus strains/isolates RN6390, USA 300, and clinical isolates R2932, R2952 and R3000 were grown to logarithmic phase (OD600 0.4-0.6) at 37° C. in tryptic Soy broth (TSB). The culture was harvested by centrifugation and the pellet was resuspended in assay buffer (400 mM NaCl, 20 mM Tris HCl, 1% glycerol, pH 7.5). Bacterial cultures (100 μl/well) were mixed with 100 μl of (as per MIC) of chimeric Ply187AN-KSH3b protein diluted in the same assay buffer. The reduction in the turbidity was measured after every 5 min up to 1 h using a micro plate reader. EB diluted in the same assay buffer (without chimeric Ply187AN-KSH3b protein) was used as a control (EB C). Resistance development against chimeric Ply187AN-KSH3b was tested using repeated exposure in an MIC assay as described by Rodriguez-Rubio and co-workers (Rodriguez-Rubio et al., PLoS One 8:e64671.). In brief, bacterial cultures (10^5 CFU/well) were exposed overnight to a 2-fold serial dilution of chimeric Ply187AN-KSH3b, lysostaphin, and gentamicin, where the latter serve as controls. […]

Experiment [1] concerns S. aureus (strain RN6390, USA 300, R 2932, R 2952, R 3000) biofilms. The experiment in a line: Biofilm disruption (Live/Dead BacLight staining and CFU count). The format is cell-based, Staphylococcus aureus. The settings on record: 24 h biofilms treated for 30 min. As to the method: FIGS. 2A-2E depicts the biofilm disruption activity of chimeric Ply187AN-KSH3b. In FIG. 2A-2E, either chimeric Ply187AN-KSH3b or EB (EB C) or Gentamicin (for MDR/MRSA strains/isolates) was applied to cover slips containing S. aureus RN6390 (FIG. 2A), USA 300 (FIG. 2B), R 2932 (FIG. 2C), R 2952 (FIG. 2D) and R3000 (FIG. 2E) biofilms for 30 min. Bacterial killing was assessed via Live/Dead™ staining and subsequent fluorescence microscopy. FIG. 2F depicts the viability of biofilm associated bacteria enumerated by CFU count. Error bars represent the mean±SEM of two independent experiments performed in triplicate.
Biofilm disruption by the chimeric Ply187AN-KSH3b was observed using Live/Dead BacLight™ staining which takes advantage of SYTO™ 9, a green-fluorescent nucleic acid stain and propidium iodide that fluoresces red. SYTO™ 9 labels a bacterial population with an intact membrane and fluoresces green. In contrast, propidium iodide penetrates bacteria with damaged membranes and fluoresces red. Briefly, static biofilms of S. aureus (strain RN6390, USA 300, R 2932, R 2952, R 3000) were grown on glass cover slips in 6 well tissue culture plates in fresh TSB media seeded with S. aureus. After incubation at 37° C. for 24 h, the biofilms were treated for an additional 30 min with chimeric Ply187AN-KSH3b (as per MIC) diluted in EB or with EB/gentamicin alone. The biofilms were then stained with the Live/Dead BacLight™ bacterial viability kit (Invitrogen, Carlsbad, Calif.), per manufacturer's instruction. The cover slips were washed three times with PBS to remove excess stain and cell debris, mounted with mounting oil on a glass slide, and examined with an Eclipse 90i fluorescence microscope (Nikon, Melville, N.Y.).

As for gentamicin [reference compound], in the experiment on S. aureus strain RN6390, the “fold change in resistance” value was 16 fold. Besides, in experiment [1], the “biofilm disruption by Live/Dead staining” value is “green fluorescence”.

For lysostaphin, in the experiment on S. aureus strain RN6390, the “fold change in resistance” value was 128 fold.

The record behind these values is US20150335719A1, “Intravitreal Injection of a Chimeric Phage Endolysin Ply187; Protection from Staphylococcus aureus Endophthalmitis” (priority 2014, published 2015).
